Laboratory results reported in BindingDB's records for doi:10.1021/jm0704550 (Cnrs, 2007).
pIC50: −log10 of the molar value.

Target: Growth hormone secretagogue receptor type 1 (Homo sapiens, UniProt Q92847)
Experiment: Receptor Binding Studies

Sequence of Growth hormone secretagogue receptor type 1 (Q92847 whole entry): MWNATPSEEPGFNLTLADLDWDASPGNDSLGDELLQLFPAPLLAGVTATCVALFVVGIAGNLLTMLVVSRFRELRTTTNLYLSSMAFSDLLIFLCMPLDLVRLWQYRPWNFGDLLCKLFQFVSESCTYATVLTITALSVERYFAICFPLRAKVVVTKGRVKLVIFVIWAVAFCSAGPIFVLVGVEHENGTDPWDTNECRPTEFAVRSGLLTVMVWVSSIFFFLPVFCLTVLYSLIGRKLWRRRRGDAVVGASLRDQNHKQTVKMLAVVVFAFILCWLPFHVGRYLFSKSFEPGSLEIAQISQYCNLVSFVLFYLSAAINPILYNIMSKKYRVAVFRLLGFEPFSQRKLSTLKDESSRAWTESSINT

Row | Kb (pH 7.3, 25 °C) | pIC50 | Compound
1 | 6 nM |  | COc1ccc(Cn2c(CCc3c[nH]c4ccccc34)nnc2[C@@H](Cc2c[nH]c3ccccc23)NC(=O)[C@@H]2CCCN2)cc1 [(2S)-N-[(1R)-2-(1H-indol-3-yl)-1-{5-[2-(1H-indol-3-yl)ethyl]-4-[(4-methoxyphenyl)methyl]-4H-1,2,4-triazol-3-yl}ethyl]pyrrolidine-2-carboxamide]
2 |  | < 6.00 | O=C(N[C@H](Cc1c[nH]c2ccccc12)c1nnc(Cc2ccccc2)n1Cc1ccccn1)C1CCNCC1 [N-[(1R)-1-[5-benzyl-4-(pyridin-2-ylmethyl)-4H-1,2,4-triazol-3-yl]-2-(1H-indol-3-yl)ethyl]piperidine-4-carboxamide]
